Results reported in patent US11793849B2, “Method of Chinese herbal medicine extract used for treating multiple diseases caused by drug resistant bacteria infection” (priority 2016, dated 2023).

Tested on: MDRAB
Test: Checkerboard assay (combined-use MIC, FIC)
Assay type: cell-based, Acinetobacter baumannii
Protocol: Test methods of the sensibilization effects of the test product to similar antibiotics: it is operated by referring to a checkerboard assay recommended by NCCLS.
The checkerboard assay is performed in a 96-pore sterile culture plate.
Calculation of a Fractional Inhibitory Concentration (FIC): FIC=S20b combined-use MIC/S20b single-use MIC+antibiotic combined-use MIC/antibiotic single-use MIC. By calculating the FIC, the combined antibacterial interaction between the EA and the antibiotic is evaluated, with synergistic effect for FIC≤0.5, additive effect for 0.5<FIC≤1, indifferent effect for 1<FIC≤2 and antagonistic effect for FIC>2. According to a sterile growth pore, the optimum concentration ratio between the EA and the antibiotic is founded out. At last, the effect of the EA to strengthen the efficacy of the antibiotic is evaluated.

Polymycin B [POLB]
combined-use MIC (strain A9, EA (60% ethanol extract) + POLB combined): 0.0625 µg/mL | combined-use MIC (strain A9, EA (95% ethanol extract) + POLB combined): 0.25 µg/mL | combined-use MIC (strain A9, EA (water extract) with POLB): 0.0625 µg/mL | single-use MIC (strain A9, EA=60% ethanol extract): 1 µg/mL | single-use MIC (strain A9, EA=95% ethanol extract): 1 µg/mL | combined-use MIC (strain A10, EA (10% ethanol extract) with POLB): 4 µg/mL | combined-use MIC (strain A10, EA (60% ethanol extract) + POLB combined): 8 µg/mL | combined-use MIC (strain A10, EA (95% ethanol extract) + POLB combined): 8 µg/mL | combined-use MIC (strain A10, EA (water extract) with POLB): 8 µg/mL | single-use MIC (strain A10, EA=60% ethanol extract): 32 µg/mL | single-use MIC (strain A10, EA=95% ethanol extract): 32 µg/mL | combined-use MIC (strain A11, EA (10% ethanol extract) with POLB): 8 µg/mL | combined-use MIC (strain A11, EA (60% ethanol extract) + POLB combined): 4 µg/mL | combined-use MIC (strain A11, EA (95% ethanol extract) + POLB combined): 4 µg/mL | combined-use MIC (strain A11, EA (water extract) with POLB): 4 µg/mL | single-use MIC (strain A11, EA=60% ethanol extract): 16 µg/mL | single-use MIC (strain A11, EA=95% ethanol extract): 16 µg/mL | combined-use MIC (strain A12, EA (10% ethanol extract) with POLB): 1 µg/mL | combined-use MIC (strain A12, EA (60% ethanol extract) + POLB combined): 0.5 µg/mL | combined-use MIC (strain A12, EA (95% ethanol extract) + POLB combined): 1 µg/mL | combined-use MIC (strain A12, EA (water extract) with POLB): 0.0625 µg/mL | single-use MIC (strain A12, EA=60% ethanol extract): 2 µg/mL | single-use MIC (strain A12, EA=95% ethanol extract): 2 µg/mL | combined-use MIC (strain A13, EA (10% ethanol extract) with POLB): 1 µg/mL | combined-use MIC (strain A13, EA (60% ethanol extract) + POLB combined): 1 µg/mL | combined-use MIC (strain A13, EA (95% ethanol extract) + POLB combined): 1 µg/mL | combined-use MIC (strain A13, EA (water extract) with POLB): 1 µg/mL | single-use MIC (strain A13, EA=60% ethanol extract): 2 µg/mL | single-use MIC (strain A13, EA=95% ethanol extract): 2 µg/mL | combined-use MIC (strain A14, EA (10% ethanol extract) with POLB): 0.0625 µg/mL | combined-use MIC (strain A14, EA (60% ethanol extract) + POLB combined): 0.0625 µg/mL | combined-use MIC (strain A14, EA (95% ethanol extract) + POLB combined): 0.25 µg/mL | combined-use MIC (strain A14, EA (water extract) with POLB): 0.0625 µg/mL | single-use MIC (strain A14, EA=60% ethanol extract): 0.5 µg/mL | single-use MIC (strain A14, EA=95% ethanol extract): 0.5 µg/mL | combined-use MIC (strain A15, EA (10% ethanol extract) with POLB): 1 µg/mL | combined-use MIC (strain A15, EA (60% ethanol extract) + POLB combined): 0.0625 µg/mL | combined-use MIC (strain A15, EA (95% ethanol extract) + POLB combined): 0.0625 µg/mL | combined-use MIC (strain A15, EA (water extract) with POLB): 0.0625 µg/mL | single-use MIC (strain A15, EA=60% ethanol extract): 2 µg/mL | single-use MIC (strain A15, EA=95% ethanol extract): 2 µg/mL | combined-use MIC (strain A16, EA (10% ethanol extract) with POLB): 1 µg/mL | combined-use MIC (strain A16, EA (60% ethanol extract) + POLB combined): 0.0625 µg/mL | combined-use MIC (strain A16, EA (95% ethanol extract) + POLB combined): 0.0625 µg/mL | combined-use MIC (strain A16, EA (water extract) with POLB): 0.0625 µg/mL | single-use MIC (strain A16, EA=60% ethanol extract): 4 µg/mL | single-use MIC (strain A16, EA=95% ethanol extract): 4 µg/mL | combined-use MIC (strain A17, EA (10% ethanol extract) with POLB): 16 µg/mL | combined-use MIC (strain A17, EA (60% ethanol extract) + POLB combined): 2 µg/mL | combined-use MIC (strain A17, EA (95% ethanol extract) + POLB combined): 4 µg/mL | combined-use MIC (strain A17, EA (water extract) with POLB): 2 µg/mL | single-use MIC (strain A17, EA=60% ethanol extract): 64 µg/mL | single-use MIC (strain A17, EA=95% ethanol extract): 64 µg/mL | combined-use MIC (strain A18, EA (10% ethanol extract) with POLB): 1 µg/mL | combined-use MIC (strain A18, EA (60% ethanol extract) + POLB combined): 0.5 µg/mL | combined-use MIC (strain A18, EA (95% ethanol extract) + POLB combined): 1 µg/mL | combined-use MIC (strain A18, EA (water extract) with POLB): 2 µg/mL | single-use MIC (strain A18, EA=60% ethanol extract): 4 µg/mL | single-use MIC (strain A18, EA=95% ethanol extract): 4 µg/mL | combined-use MIC (strain A19, EA (10% ethanol extract) with POLB): 1 µg/mL | combined-use MIC (strain A19, EA (60% ethanol extract) + POLB combined): 0.5 µg/mL | combined-use MIC (strain A19, EA (95% ethanol extract) + POLB combined): 1 µg/mL | combined-use MIC (strain A19, EA (water extract) with POLB): 2 µg/mL | single-use MIC (strain A19, EA=60% ethanol extract): 4 µg/mL | single-use MIC (strain A19, EA=95% ethanol extract): 4 µg/mL | combined-use MIC (strain A20, EA (10% ethanol extract) with POLB): 1 µg/mL | combined-use MIC (strain A20, EA (60% ethanol extract) + POLB combined): 0.5 µg/mL | combined-use MIC (strain A20, EA (95% ethanol extract) + POLB combined): 0.5 µg/mL | combined-use MIC (strain A20, EA (water extract) with POLB): 1 µg/mL | single-use MIC (strain A20, EA=60% ethanol extract): 2 µg/mL | single-use MIC (strain A20, EA=95% ethanol extract): 2 µg/mL | combined-use MIC (strain AS, EA (95% ethanol extract) + POLB combined): 2 µg/mL
